Our source for the Activity and inhibition values is ChEMBL document CHEMBL3596104, “Covalent modifier-type aggregation inhibitor of amyloid-β based on a cyclo-KLVFF motif” (Bioorg Med Chem Lett, 2015).

In experiment [1] the target is Amyloid-beta precursor protein (Homo sapiens) (UniProt P05067). Kind of experiment: Binding affinity to amyloid beta (1 to 42) (unknown origin) assessed as intensity of peak for compound-amyloid beta (1 to 16) adduct at 200 uM incubated for 10 mins irradiated with UV light for 10 mins by MALDI-TOF-MS method.
Experiment [2] shares this target. Kind of experiment: Binding affinity to amyloid beta (1 to 42) (unknown origin) assessed as fluorescence intensity at 50 uM by Thioflavin-T fluorescence assay (reference value: 100%).
Experiment [3] has the same target. Kind of experiment: Inhibition of fibril formation of amyloid beta (1 to 42) (unknown origin) at 50 uM incubated for 20 mins followed by irradiation with UV light for 10 mins and measured after 12 hrs by atomic force microscopy.
Experiment [4] shares this target. Kind of experiment: Binding affinity to amyloid beta (1 to 42) (unknown origin) assessed as intensity of peak for compound-amyloid beta (1 to 16) adduct at 200 uM incubated for 60 mins irradiated with UV light for 10 mins by MALDI-TOF-MS method (reference value: 10%).
For experiment [5] the target is unchanged. Nature of the experiment: Inhibition of amyloid beta (1 to 42) (unknown origin)-mediated cytotoxicity in rat PC12 cells treated with 20 mins compound pre-treated Abeta (1 to 42) followed by UV irradiation for 10 mins […] and measured after 48 hrs by WST8 assay. In kind it is cell-based. The conditions noted are these: PC-12. In general terms: Formazan colour is commonly taken as a measure of viable cells.

Experiment [6] has as its target T1, Neuropeptide S (Homo sapiens) (UniProt P0C0P6).
T1 sequence (whole entry): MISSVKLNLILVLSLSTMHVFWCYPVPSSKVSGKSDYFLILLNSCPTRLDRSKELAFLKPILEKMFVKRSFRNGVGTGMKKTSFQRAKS
Kind of experiment: Binding affinity to neuropeptide-S (unknown origin) at 200 uM incubated for 2 hrs irradiated with UV light for 10 mins by MALDI-TOF-MS method.

For experiment [7], the target named is Amyloid-beta precursor protein (Homo sapiens) (UniProt P05067). Kind of experiment: Binding affinity to amyloid beta (1 to 42) (unknown origin) assessed as intensity of peak for compound-amyloid beta (17 to 28) adduct at 200 uM incubated for 20 to 120 mins irradiated with UV light for 10 mins by MALDI-TOF-MS method (reference value: 10%).
The target is the same in experiment [8]. Kind of experiment: Binding affinity to amyloid beta (1 to 42) (unknown origin) assessed as intensity of peak for compound-amyloid beta (1 to 16) adduct at 200 uM incubated for 20 mins irradiated with UV light for 10 mins by MALDI-TOF-MS method (reference value: 10%).
For experiment [9] the target is unchanged. Nature of the experiment: Binding affinity to amyloid beta (1 to 42) (unknown origin) assessed as intensity of peak for compound-amyloid beta (1 to 16) adduct at 200 uM incubated for 120 mins irradiated with UV light for 10 mins by MALDI-TOF-MS method (reference value: 10%).
Experiment [10] has as its target T2, Angiotensinogen (Homo sapiens) (UniProt P01019).
T2 sequence (whole entry): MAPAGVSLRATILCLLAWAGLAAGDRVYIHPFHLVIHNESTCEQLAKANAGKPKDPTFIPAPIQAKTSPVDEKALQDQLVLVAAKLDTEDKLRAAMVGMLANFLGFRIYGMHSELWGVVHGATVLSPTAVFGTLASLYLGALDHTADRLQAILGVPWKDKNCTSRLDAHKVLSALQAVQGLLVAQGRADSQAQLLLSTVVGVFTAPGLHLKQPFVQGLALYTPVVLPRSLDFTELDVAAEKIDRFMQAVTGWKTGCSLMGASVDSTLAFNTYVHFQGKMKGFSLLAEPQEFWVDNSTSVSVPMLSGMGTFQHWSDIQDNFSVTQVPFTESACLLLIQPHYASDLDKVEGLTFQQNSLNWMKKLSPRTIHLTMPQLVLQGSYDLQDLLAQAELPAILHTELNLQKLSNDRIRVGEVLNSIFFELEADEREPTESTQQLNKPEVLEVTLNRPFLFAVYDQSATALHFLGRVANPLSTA
Kind of experiment: Binding affinity to angiotensin-4 (unknown origin) at 200 uM incubated for 2 hrs irradiated with UV light for 10 mins by MALDI-TOF-MS method.

A further experiment addresses Insulin (Homo sapiens) (UniProt P01308). Nature of the experiment: Binding affinity to human insulin at 200 uM incubated for 2 hrs irradiated with UV light for 10 mins by MALDI-TOF-MS method.
Experiment [11] concerns the target Amyloid-beta precursor protein (Homo sapiens) (UniProt P05067). Kind of experiment: Binding affinity to amyloid beta (1 to 16) (unknown origin) assessed as intensity of peak for compound-amyloid beta (1 to 16) adduct at 200 uM irradiated with UV light for 10 mins by MALDI-TOF-MS method.
Experiment [12] shares this target. Kind of experiment: Binding affinity to amyloid beta (1 to 42) (unknown origin) assessed as fluorescence intensity at 50 uM irradiated with UV light for 10 mins and measured up to 4 hrs by Thioflavin-T fluorescence assay (reference value: 100%).
Experiment [13] has the same target. Kind of experiment: Binding affinity to amyloid beta (1 to 42) (unknown origin) assessed as intensity of peak for compound-amyloid beta (29 to 42) adduct at 200 uM incubated for 20 to 120 mins irradiated with UV light for 10 mins by MALDI-TOF-MS method (reference value: 10%).
Experiment [14] shares this target. Nature of the experiment: Binding affinity to amyloid beta (1 to 42) (unknown origin) assessed as compound-amyloid beta (4 to 11) adduct formation at Tyr10 residue at 200 uM incubated for 2 hrs irradiated with UV light for 10 mins by LC-MS/MS method.
The target is the same in experiment [15]. Nature of the experiment: Inhibition of amyloid beta (1 to 42) (unknown origin)-mediated cytotoxicity in rat PC12 cells treated with 30 mins compound pre-treated Abeta (1 to 42) followed by UV irradiation for 10 mins […] and measured after 48 hrs by WST8 assay. The conditions noted are these: PC-12. In kind it is cell-based.
Experiment [16] shares this target. Kind of experiment: Binding affinity to amyloid beta (1 to 42) (unknown origin) assessed as fluorescence intensity at 50 uM irradiated with UV light for 10 mins and measured after 60 mins by Thioflavin-T fluorescence assay (reference value: 100%).

The structures appear in SMILES notation. Activity calls are given as the source filed them. The rule behind the calls is not given here. Starred links: 1 amine or outer side, 2 acyl side, 3 side chain; linkers in the order of their positions; H or OH if unused. Non-standard residues stand in square brackets, D forms with d. Residues, ends and D or L forms follow the SMILES beside them. Phe(4-CF3-diazirinyl) = N[C@@H](Cc1ccc(C2(C(F)(F)F)N=N2)cc1)C(=O)O; X1 = O=C([C@H](Cc1ccc(C(O)C(F)(F)F)cc1)N[*:1])[*:2]; Dip = N[C@H](C(=O)O)C(c1ccccc1)c1ccccc1

Chain of Amyloid-beta precursor protein (Homo sapiens) (P05067 whole entry): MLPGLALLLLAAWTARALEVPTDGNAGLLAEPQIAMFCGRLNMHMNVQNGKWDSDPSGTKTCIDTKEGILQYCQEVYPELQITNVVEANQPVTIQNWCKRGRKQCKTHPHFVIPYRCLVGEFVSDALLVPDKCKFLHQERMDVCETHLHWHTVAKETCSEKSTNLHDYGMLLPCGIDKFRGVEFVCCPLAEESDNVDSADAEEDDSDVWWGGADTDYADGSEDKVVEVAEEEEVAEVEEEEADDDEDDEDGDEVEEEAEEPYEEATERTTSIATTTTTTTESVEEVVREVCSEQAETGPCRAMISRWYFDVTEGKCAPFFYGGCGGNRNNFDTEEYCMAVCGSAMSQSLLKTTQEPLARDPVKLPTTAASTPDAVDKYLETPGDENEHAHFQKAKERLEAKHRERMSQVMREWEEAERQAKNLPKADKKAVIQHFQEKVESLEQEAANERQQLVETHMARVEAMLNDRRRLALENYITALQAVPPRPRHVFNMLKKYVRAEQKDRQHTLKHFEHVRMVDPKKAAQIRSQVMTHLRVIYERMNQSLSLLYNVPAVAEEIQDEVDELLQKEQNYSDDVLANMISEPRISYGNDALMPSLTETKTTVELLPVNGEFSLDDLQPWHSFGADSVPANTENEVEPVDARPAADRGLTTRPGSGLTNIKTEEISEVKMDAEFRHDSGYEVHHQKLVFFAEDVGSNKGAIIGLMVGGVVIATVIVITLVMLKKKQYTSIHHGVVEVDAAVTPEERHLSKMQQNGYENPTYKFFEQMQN
Chain of Insulin (Homo sapiens) (P01308 whole entry): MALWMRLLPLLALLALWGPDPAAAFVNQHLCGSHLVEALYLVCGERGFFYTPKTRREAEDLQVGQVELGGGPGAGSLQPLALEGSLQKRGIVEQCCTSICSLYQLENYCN

For `CC(C)(C)OC(=O)N[C@@H](Cc1ccc(C2(C(F)(F)F)N=N2)cc1)C(=O)O`, the outcome in experiment [1] was inactive.

`CC(C)C[C@H]1NC(=O)[C@@H](CCCCN)NC(=O)[C@@H](Cc2ccccc2)NC(=O)[C@@H](C(c2ccccc2)c2ccccc2)NC(=O)[C@@H](C(C)C)NC1=O`: the Activity in [2] stood at 68%.

For the molecule `C[C@@H]1NC(=O)[C@H](CC(=O)O)NC(=O)[C@H](CCCNC(=N)N)NC(=O)[C@H](Cc2ccc(C3(C(F)(F)F)N=N3)cc2)NC(=O)[C@H](CCC(=O)O)NC1=O` (cyclo(AE[Phe(4-CF3-diazirinyl)]RD)), the result in experiment [1] was inactive.

With `CC(C)C[C@@H]1NC(=O)[C@H](CCCCN)NC(=O)[C@H](Cc2ccc(C3(C(F)(F)F)N=N3)cc2)NC(=O)[C@H](C(c2ccccc2)c2ccccc2)NC(=O)[C@H](C(C)C)NC1=O` (cyclo([Dip][Phe(4-CF3-diazirinyl)]KLV)), the inhibition entry in experiment [3] is “Active”. Also, the Activity in experiment [4] turned out to be 20%; in experiment [2], 59%; in experiment [8], 10%; in [9], 36%; in experiment [12] it was 21%. Further, in experiment [5], the inhibition result is “Dose-dependent effect”. Further, the result (in experiment [6]; in experiment [7]; in experiment [10]; at Insulin (Homo sapiens); in [11]; in experiment [13]) was inactive. For the same molecule, the result in [1] and in experiment [14] was Active.

For `CC(C)C[C@@H]1NC(=O)[C@H](CCCCN)NC(=O)[C@H](Cc2ccc(C(O)C(F)(F)F)cc2)NC(=O)[C@H](C(c2ccccc2)c2ccccc2)NC(=O)[C@H](C(C)C)NC1=O` (stereo not given in full) (cyclo([Dip][X1]KLV)), the inhibition entry in experiment [15] is “Dose-dependent effect”. Besides, the Activity in [16] is 21%.
